Measured values: PubChem BioAssay AID248 (DTP/NCI, 2004)
“And” between values parts separate entries of the source, which are not always exact repeats. Identical values can stand only once. Inconclusive results and toxic doses are left out. No stated cut-off is given here; in the data, active means T/C of 150% or more; inactive means T/C below 125%.

Tested on: L1210 leukemia ip in BDF1 mice, survival T/C
Assay: NCI In Vivo Anticancer Drug Screen. Data for tumor model L1210 Leukemia (intraperitoneal) in B6D2F1 (BDF1) mice
Details: endpoint: mean survival time, higher = longer survival
Procedure, shortened: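 In this screen, tumor-bearing mice given compound are compared to those given vehicle, and their survival values are reported as a treated-to-control quotient.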

[1] = dose: 100.0 mg/kg/injection, schedule: Q04DX003 (ip), vehicle: saline with Tween-80
[2] = dose: 200.0 mg/kg/injection, schedule: Q04DX003 (ip), vehicle: saline with Tween-80
[3] = dose: 10.0 mg/kg/injection, schedule: Q01DX001 (ip), vehicle: saline
[4] = dose: 10.0 mg/kg/injection, schedule: Q01DX009 (ip), vehicle: saline
[5] = dose: 20.0 mg/kg/injection, schedule: Q01DX001 (ip), vehicle: saline
[6] = dose: 20.0 mg/kg/injection, schedule: Q01DX009 (ip), vehicle: saline
[7] = dose: 40.0 mg/kg/injection, schedule: Q01DX001 (ip), vehicle: saline
[8] = dose: 100.0 mg/kg/injection, schedule: Q01DX009 (ip), vehicle: Klucel (hydroxypropylcellulose) (HPC)
[9] = dose: 100.0 mg/kg/injection, schedule: Q04DX003 (ip), vehicle: Klucel (hydroxypropylcellulose) (HPC)
[10] = dose: 200.0 mg/kg/injection, schedule: Q01DX009 (ip), vehicle: Klucel (hydroxypropylcellulose) (HPC)
[11] = dose: 200.0 mg/kg/injection, schedule: Q04DX003 (ip), vehicle: Klucel (hydroxypropylcellulose) (HPC)
[12] = dose: 400.0 mg/kg/injection, schedule: Q01DX009 (ip), vehicle: Klucel (hydroxypropylcellulose) (HPC)
[13] = dose: 400.0 mg/kg/injection, schedule: Q04DX003 (ip), vehicle: Klucel (hydroxypropylcellulose) (HPC)

Measured: T/C

CC1CC(C)(C)N=C(CCC2CCCCCC2=O)O1 (stereo unspecified)
inactive: dose: 25.0 mg/kg/injection, schedule: Q01DX009 (ip), vehicle: saline 98 % of control | dose: 50.0 mg/kg/injection, schedule: Q01DX009 (ip), vehicle: saline 102 % of control | dose: 50.0 mg/kg/injection, schedule: Q04DX003 (ip), vehicle: saline with Tween-80 96 % of control | dose: 100.0 mg/kg/injection, schedule: Q01DX009 (ip), vehicle: saline 100 % of control | [1] 93 % of control | dose: 200.0 mg/kg/injection, schedule: Q01DX009 (ip), vehicle: saline 101 % of control | [2] 96 % of control

CCCCCCCCCCCCCCC1=NCCN1
inactive: dose: 5.0 mg/kg/injection, schedule: Q01DX009 (ip), vehicle: saline 98 % of control | [3] 94 % of control | [4] 104 % of control | dose: 10.0 mg/kg/injection, schedule: Q04DX003 (ip), vehicle: saline 92 % of control | [5] 103 % of control | [6] 106 % of control | dose: 20.0 mg/kg/injection, schedule: Q04DX003 (ip), vehicle: saline 101 % of control | [7] 98 % of control | dose: 40.0 mg/kg/injection, schedule: Q04DX003 (ip), vehicle: saline 92 % of control

Cc1cccc(C)c1NS(=O)(=O)c1ccccc1
inactive: [8] 104 % of control | [9] 101 % of control | [10] 101 % of control | [11] 103 % of control | [12] 98 % of control | [13] 104 % of control

O=C(/C=C/c1c(Cl)cccc1Cl)c1ccc([N+](=O)[O-])cc1
inactive: [9] 103 % of control | [11] 94 % of control | [13] 94 % of control

O=C(c1ccc(C(=O)N(C2CCCCC2)C2CCCCC2)cc1)N(C1CCCCC1)C1CCCCC1
inactive: dose: 5.0 mg/kg/injection, schedule: Q01DX001 (ip), vehicle: saline 105 % of control | [3] 109 % of control | [5] 103 % of control | [7] 101 % of control | dose: 80.0 mg/kg/injection, schedule: Q01DX001 (ip), vehicle: saline 100 % of control

Cc1ccc(NC(=O)N(C)CCC#N)cc1
inactive: dose: 100.0 mg/kg/injection, schedule: Q04DX002 (ip), vehicle: saline with Tween-80 97 % of control | dose: 200.0 mg/kg/injection, schedule: Q04DX002 (ip), vehicle: saline with Tween-80 94 % of control | dose: 400.0 mg/kg/injection, schedule: Q04DX002 (ip), vehicle: saline with Tween-80 87 % of control

CC12CCC(OC3OC(CO)C(OC4OC(CO)C(O)C(O)C4O)C(O)C3O)CC1CCC1C2CCC2(C)C(C3=CC(=O)OC3)CCC12O (stereo unspecified)
inactive: [4] 102 % of control | [6] 116 % of control | dose: 40.0 mg/kg/injection, schedule: Q01DX009 (ip), vehicle: saline 102 % of control

CCCCCCCC[Si](CCCCCCCC)CCCCCCCC
inactive: dose: 100.0 mg/kg/injection, schedule: Q04DX003 (ip), vehicle: acetone 95 % of control | dose: 200.0 mg/kg/injection, schedule: Q04DX003 (ip), vehicle: acetone 91 % of control | dose: 400.0 mg/kg/injection, schedule: Q04DX003 (ip), vehicle: acetone 98 % of control

Cn1cc(C(C)(C(=O)O)c2cn(C)c3ccccc23)c2ccccc21
inactive: dose: 100.0 mg/kg/injection, schedule: Q01DX001 (ip), vehicle: saline 104 % of control | dose: 200.0 mg/kg/injection, schedule: Q01DX001 (ip), vehicle: saline 102 % of control | dose: 400.0 mg/kg/injection, schedule: Q01DX001 (ip), vehicle: saline 102 % of control

COC(=O)c1cc2nc(C(C)C)n(Cc3ccccc3)c2cc1C(=O)OC
inactive: dose: 100.0 mg/kg/injection, schedule: Q01DX001 (ip), vehicle: other 99 % of control | dose: 100.0 mg/kg/injection, schedule: Q01DX009 (ip), vehicle: other 104 % of control and 87 % of control | dose: 100.0 mg/kg/injection, schedule: Q04DX002 (ip), vehicle: Klucel (hydroxypropylcellulose) (HPC) 105 % of control | dose: 100.0 mg/kg/injection, schedule: Q04DX002 (ip), vehicle: other 102 % of control and 91 % of control | dose: 100.0 mg/kg/injection, schedule: Q04DX003 (ip), vehicle: other 107 % of control | dose: 200.0 mg/kg/injection, schedule: Q01DX001 (ip), vehicle: other 100 % of control | dose: 200.0 mg/kg/injection, schedule: Q01DX009 (ip), vehicle: other 101 % of control and 90 % of control | dose: 200.0 mg/kg/injection, schedule: Q04DX002 (ip), vehicle: Klucel (hydroxypropylcellulose) (HPC) 98 % of control | dose: 200.0 mg/kg/injection, schedule: Q04DX002 (ip), vehicle: other 95 % of control and 108 % of control | dose: 200.0 mg/kg/injection, schedule: Q04DX003 (ip), vehicle: other 109 % of control | dose: 400.0 mg/kg/injection, schedule: Q01DX001 (ip), vehicle: other 89 % of control | dose: 400.0 mg/kg/injection, schedule: Q01DX009 (ip), vehicle: other 97 % of control and 106 % of control | dose: 400.0 mg/kg/injection, schedule: Q04DX002 (ip), vehicle: Klucel (hydroxypropylcellulose) (HPC) 102 % of control | dose: 400.0 mg/kg/injection, schedule: Q04DX002 (ip), vehicle: other 95 % of control and 107 % of control | dose: 400.0 mg/kg/injection, schedule: Q04DX003 (ip), vehicle: other 105 % of control

O=c1[nH]ncc2ccc([N+](=O)[O-])cc12
inactive: dose: 75.0 mg/kg/injection, schedule: Q01DX001 (ip), vehicle: other 103 % of control | dose: 150.0 mg/kg/injection, schedule: Q01DX001 (ip), vehicle: other 101 % of control

COC(=O)Nc1ccc(C(C)=O)cc1
inactive: dose: 20.0 mg/kg/injection, schedule: Q01DX009 (ip), vehicle: saline with Tween-80 95 % of control | dose: 40.0 mg/kg/injection, schedule: Q01DX009 (ip), vehicle: saline with Tween-80 91 % of control | dose: 80.0 mg/kg/injection, schedule: Q01DX009 (ip), vehicle: saline with Tween-80 93 % of control | dose: 160.0 mg/kg/injection, schedule: Q01DX009 (ip), vehicle: saline with Tween-80 101 % of control | dose: 320.0 mg/kg/injection, schedule: Q01DX009 (ip), vehicle: saline with Tween-80 90 % of control

CCCCOP(OCCCC)Oc1ccccc1
inactive: dose: 50.0 mg/kg/injection, schedule: Q01DX009 (ip), vehicle: saline with Tween-80 89 % of control | dose: 100.0 mg/kg/injection, schedule: Q01DX009 (ip), vehicle: saline with Tween-80 89 % of control | [1] 97 % of control | dose: 200.0 mg/kg/injection, schedule: Q01DX009 (ip), vehicle: saline with Tween-80 100 % of control | [2] 96 % of control | dose: 400.0 mg/kg/injection, schedule: Q04DX003 (ip), vehicle: saline with Tween-80 103 % of control

CCCCCCCCCc1c(C)[nH]c2ccccc2c1=O
inactive: [8] 94 % of control | dose: 100.0 mg/kg/injection, schedule: Q04DX003 (ip), vehicle: saline 100 % of control | [10] 86 % of control | dose: 200.0 mg/kg/injection, schedule: Q04DX003 (ip), vehicle: saline 104 % of control | [12] 86 % of control | dose: 400.0 mg/kg/injection, schedule: Q04DX003 (ip), vehicle: saline 100 % of control
